Laboratory results reported in PubChem BioAssay AID252 (DTP/NCI, 2004).
“And” between values parts separate entries of the source, which are not always exact repeats. Equal values may be shown once. Toxic doses and inconclusive results are not listed. Rule for the calls: active = survival T/C of 150% or more; inactive = T/C below 125% in these data.

Tested on: BDF1 mice, intracerebral L1210 leukemia, survival T/C
Experiment: NCI In Vivo Anticancer Drug Screen. Data for tumor model L1210 Leukemia (intracerebral) in B6D2F1 (BDF1) mice
Conditions: higher = longer survival
Procedure, shortened: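 Survival measured in treated and vehicle-control tumour-bearing mice; value = T/C.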

[1] = endpoint: median survival time, dose: 8.0 mg/kg/injection, schedule: Q01DX009 (ip), vehicle: water
[2] = endpoint: median survival time, dose: 16.0 mg/kg/injection, schedule: Q01DX009 (ip), vehicle: water
[3] = endpoint: median survival time, dose: 256.0 mg/kg/injection, schedule: Q01DX009 (ip), vehicle: water

Measured: T/C

O=C1CN=C(c2ccc[nH]2)c2cc(Cl)ccc2N1
inactive: endpoint: mean survival time, dose: 248.0 mg/kg/injection, schedule: Q01DX009 (sc), vehicle: Klucel (hydroxypropylcellulose) (HPC) 103 % of control | endpoint: mean survival time, dose: 377.0 mg/kg/injection, schedule: Q01DX009 (sc), vehicle: Klucel (hydroxypropylcellulose) (HPC) 108 % of control | endpoint: mean survival time, dose: 571.0 mg/kg/injection, schedule: Q01DX009 (sc), vehicle: Klucel (hydroxypropylcellulose) (HPC) 100 % of control | endpoint: mean survival time, dose: 858.0 mg/kg/injection, schedule: Q01DX009 (sc), vehicle: Klucel (hydroxypropylcellulose) (HPC) 108 % of control | endpoint: mean survival time, dose: 1300.0 mg/kg/injection, schedule: Q01DX009 (sc), vehicle: Klucel (hydroxypropylcellulose) (HPC) 122 % of control | endpoint: median survival time, dose: 1.75 mg/kg/injection, schedule: Q01DX009 (ip), vehicle: other 102 % of control | endpoint: median survival time, dose: 3.15 mg/kg/injection, schedule: Q01DX009 (ip), vehicle: other 102 % of control | endpoint: median survival time, dose: 6.3 mg/kg/injection, schedule: Q01DX009 (ip), vehicle: other 106 % of control | endpoint: median survival time, dose: 12.5 mg/kg/injection, schedule: Q01DX009 (ip), vehicle: other 102 % of control | endpoint: median survival time, dose: 25.0 mg/kg/injection, schedule: Q01DX009 (ip), vehicle: other 110 % of control

CCOC(=O)c1ccc(NC(=O)N(CCCl)N=O)cc1
inactive: endpoint: mean survival time, dose: 4.0 mg/kg/injection, schedule: Q01DX001 (ip), vehicle: carboxymethylcellulose (CMC) 108 % of control | endpoint: mean survival time, dose: 6.0 mg/kg/injection, schedule: Q01DX001 (ip), vehicle: carboxymethylcellulose (CMC) 107 % of control | endpoint: mean survival time, dose: 9.0 mg/kg/injection, schedule: Q01DX001 (ip), vehicle: carboxymethylcellulose (CMC) 108 % of control | endpoint: mean survival time, dose: 13.5 mg/kg/injection, schedule: Q01DX001 (ip), vehicle: carboxymethylcellulose (CMC) 113 % of control

C[C@@H](CN1CC(=O)NC(=O)C1)N1CC(=O)NC(=O)C1
inactive: [1] 112 % of control | [2] 121 % of control and 123 % of control | endpoint: median survival time, dose: 128.0 mg/kg/injection, schedule: Q01DX009 (ip), vehicle: water 123 % of control | [3] 111 % of control | endpoint: median survival time, dose: 512.0 mg/kg/injection, schedule: Q01DX009 (ip), vehicle: water 113 % of control

C[C@H](CN1CC(=O)NC(=O)C1)N1CC(=O)NC(=O)C1
inactive: [1] 107 % of control | [2] 115 % of control and 116 % of control | endpoint: median survival time, dose: 32.0 mg/kg/injection, schedule: Q01DX009 (ip), vehicle: water 124 % of control | endpoint: median survival time, dose: 64.0 mg/kg/injection, schedule: Q01DX009 (ip), vehicle: water 123 % of control | [3] 109 % of control and 95 % of control

O=NN(CCCl)C(=O)Nc1ccc(Cn2ccc(=O)[nH]c2=O)cc1
inactive: endpoint: mean survival time, dose: 18.0 mg/kg/injection, schedule: Q01DX001 (ip), vehicle: carboxymethylcellulose (CMC) 109 % of control | endpoint: mean survival time, dose: 26.0 mg/kg/injection, schedule: Q01DX001 (ip), vehicle: carboxymethylcellulose (CMC) 110 % of control | endpoint: mean survival time, dose: 40.0 mg/kg/injection, schedule: Q01DX001 (ip), vehicle: carboxymethylcellulose (CMC) 109 % of control | endpoint: mean survival time, dose: 60.0 mg/kg/injection, schedule: Q01DX001 (ip), vehicle: carboxymethylcellulose (CMC) 122 % of control | endpoint: mean survival time, dose: 90.0 mg/kg/injection, schedule: Q01DX001 (ip), vehicle: carboxymethylcellulose (CMC) 119 % of control
